Test results from patent US20250188457A1, “COMPOSITIONS AND METHODS FOR THE TREATMENT OF GLIOBLASTOMA BY INHIBITION OF THE TFPI2-CD51-STAT6 SIGNALING AXIS” (Northwestern University, priority 2023, published 2025).

B1: TFPI2 recombinant protein (tissue factor pathway inhibitor 2; BioVision, #7481-10) (ligand, UniProt P48307 23-235, looked up)
chain: DAAQEPTGNNAEICLLPLDYGPCRALLLRYYYDRYTQSCRQFLYGGCEGNANNFYTWEACDDACWRIEKVPKVCRLQVSVDDQCEGSTEKYFFNLSSMTCEKFFSGGCHRNRIENRFPDEATCMGFCAPKKIPSFCYSPKDEGLCSANVTRYYFNPRYRTCDAFTYTGCGGNDNNFVSREDCKRACAKALKKKKKMPKLRFASRIRKIRKKQF
notes: Bought recombinant protein added to microglia at 20 ng/ml; also called recombinant TFPI2; secreted TFPI2

Key:
[1] = tested on: mouse primary CD8+ T cells cocultured with SIM-A9 microglia; assay: Mouse microglia and CD8+ T cell co-culture, flow cytometry; format: cell-based; settings: TFPI2 recombinant protein 20 ng/ml; AS1517499 25 nM
Protocol: Primary mouse CD8^+ T cells were isolated from the spleens of C57BL/6 mice using a CD8^+ T cell isolation kit (Miltenyi Biotec, #130-104-075) according to manufacturer's instructions. Isolated CD8^+ T cells were cultured in RPMI 1640 media (Gibco, #22400-089) containing 10% FBS, 50 μM 2-Mercaptoethanol (Sigma, #M7522), and 1:100 antibiotic-antimycotic. Then, primary mouse CD8^+ T cells were expanded by 30 U/ml mouse IL-2 (Miltenyi Biotec, #130-120-662) and activated by Dynabeads® mouse T-activator CD3/CD28 (Gibco, #11456D) at bead-to-cell ratio of 1:1 before analysis and co-culture studies. For membrane protein staining, the single-cell suspensions were washed with PBS and then incubated with fixable viability dye (Invitrogen, #5211229035) on ice for 10 min. Following washing with PBS, cells were incubated with the anti-CD16/CD32 cocktail (BioLegend, #103132) in 2% BSA PBS to block Fc receptors for 30 min on ice. […] Samples were read in BD FACSymphony flow cytometer and analyzed in FlowJo v10.8.1. […] Then cell suspensions were rewashed in permeabilization buffer and read in BD FACSymphony flow cytometer.

STAT6 = assay: Immunoblot and flow cytometry for P-STAT6 in microglia; format: cell-based, human and mouse; settings: TFPI2 recombinant protein, indicated concentrations and time points
Protocol: The protein expression in cells was determined by western blotting analysis (Ref. 61; incorporated by reference in its entirety). Cells were homogenized in RIPA lysis buffer containing phosphatase/protease cocktail inhibitors (Cell Signaling Technology, #5870). The protein concentration was determined by BCA Protein Assay Kit (Thermo Fisher Scientific, #P123225). Protein solution was mixed with the Leammli sample buffer and heated at 95° C. before loading to SurePAGE gels (GenScript, #M00653). The gels were run at a constant voltage of 80 V and then transferred to 0.2 μm nitrocellulose membrane (Bio-Rad, #1620112) using the Trans-Blot Turbo system (Bio-Rad) with a preprogrammed standard protocol for 30 min. Nitrocellulose membrane was incubated with 5% dry milk to block any unspecific staining. […]

| Molecule | decrease of CD8+ T cell viability by TFPI2-polarized microglia [1] | reduction of the percentage of CD8+CD69+ and CD8+IFNγ+ T cells by TFPI2-treated microglia [1] | phosphorylation of STAT6 in human and mouse microglia (STAT6) |
| --- | --- | --- | --- |
| NC(=O)c1cnc(NCCc2ccc(O)c(Cl)c2)nc1NCc1ccccc1 [AS1517499] | negated | prevented | – |
| B1 | – | – | increased |
